In patent publication US8658668B2, “PI3 kinase/mTOR dual inhibitor” (Eli Lilly and Company, priority 2011, dated 2014):

Columns and labels:
Type in all cases: cell-based
[1] = tested on: PRXF PC3M human tumor xenograft cells; experiment: Oncotest tumor clonogenic assay, PRXF PC3M; settings: PC-3M, colony formation, Prostate PRXF PC3M, adeno carcinoma, metastatic, pd, read-out: Absolute IC50
[2] = tested on: GXF 209 human tumor xenograft cells; experiment: Oncotest tumor clonogenic assay, GXF 209; settings: colony formation, Gastric GXF 209, signet-ring cell carcinoma, ud, read-out: Absolute IC50
A204 = experiment: Cell proliferation assay (CellTiter-Glo), A204; settings: Homo sapiens, A204, 72 h
Experimental: Plate cells in a 96-well plate at 2000 cells/well in 100 μL of cell specific medium (for U87MG use DMEM, 10% FBS, 25 mM 4-(2-hydroxyethyl)-1-piperazineethanesulfonic acid (HEPES), 1.0 mM sodium pyruvate, and 0.1 mM Non Essential Amino Acids (ATCC Cat.#30-2002); for HT1080 use Eagle's MEM, 10% FBS (ATCC Cat.#30-2003); for H1975, A2780, SJSA-1 and 786-O use RPMI 1640, 10% FBS (ATCC Cat.#30-2001); for A204 use McCoy's 5A, 10% FBS (ATCC Cat.#30-2007) except in column 1 use medium only as the blank control. Incubate the plates overnight at 37° C. and 5% CO2. On the next day, prepare compound stocks at 1 mM in DMSO and serially dilute in DMSO in a 96-well round bottom polypropylene plate. Assay compounds at 10 concentrations in duplicate, 4 compounds per plate.
Transfer 4 μL of the DMSO serial dilutions to a 96 well plate and add 196 μL of culture medium to create a 10× stock for dosing. Gently transfer 11 μL of each dosing stock to the corresponding well of the cell plate resulting in a 0.2% DMSO concentration and a 111 μL final volume. […]
Prepared the CellTiter-Glo reagent (Promega, Cat: G7571) and add 100 µL to each well after the incubation is complete, homogenize the cells by mixing on an orbital shaker for 2 min and then incubate at RT for 10 min to allow the luminescent signal to stabilize. Record the luminescent raw data with a Wallac Victor V plate reader. […]

AKT1(pT308) = experiment: AlphaScreen SureFire p-AKT (Thr308) in U87MG cells; settings: Homo sapiens, U-87 MG, 1 h, n = 4, read-out: AKT1(pT308) Absolute IC50
Experimental: This homogeneous assay format uses immuno-sandwich capture of the phosphorylated analyte and then detection with antibody-coated Alphascreen beads to generate an amplified signal.
Maintain U87MG cells in U87MG growth medium consisting of DMEM (GIBCO 11965-092) supplemented with 10% fetal bovine serum (FBS, GIBCO, 10091-141), 1% nonessential amino acids (GIBCO, 11140-050) and 1% sodium pyruvate (GIBCO, 11360-070). Harvest cells using standard cell culture procedures and then count using Vi-Cell. Plate 100 μL of U87MG cells in growth medium (50,000 cells/well) into Costar #3596 96 well plates and incubate overnight at 37° C., 5% CO2.
Incubate for one h at 37° C., then remove the medium and add 50 μL of 1× SureFire Lysis Buffer (TGR Biosciences SureFire® Kit component) to each well and incubate at room temperature for 10 min with gentle shaking Transfer 6 μL lysate and 10 μL reaction mixture (60 parts reaction buffer/10 parts activation buffer/1 part each of donor and acceptor beads, Perkin Elmer, 6760617R) to a 384 well proxiplate (Perkin Elmer, 6006280) for the p-p70S6 kinase (Thr389) and p-AKT(Ser473) assays. Seal the plate and incubate at RT for 4 h. […] Read the plates on a Perkin Elmer EnVision equipped with a TurboModule using standard AlphaScreen® settings (Ex680 nm and Em520-620 nm). […]

[3] = tested on: CXF 1103 human tumor xenograft cells; experiment: Oncotest tumor clonogenic assay, CXF 1103; settings: CXF1103, colony formation, Colon CXF 1103, adeno carcinoma, pd, read-out: Absolute IC50
[4] = tested on: RXF 631 human tumor xenograft cells; experiment: Oncotest tumor clonogenic assay, RXF 631; settings: colony formation, Renal RXF 631, hypernephroid adeno carcinoma, wd, read-out: Absolute IC50
[5] = tested on: CXF 1783 human tumor xenograft cells; experiment: Oncotest tumor clonogenic assay, CXF 1783; settings: colony formation, Colon CXF 1783, colon carcinoma, wd, read-out: Absolute IC50

**Q.** For CO[C@@H](C)Cn1c(=O)n(C)c2cnc3ccc(-c4cncc(C(C)(C)O)c4)cc3c21 [Example 1, 8-[5-(1-Hydroxy-1-methylethyl)pyridin-3-yl]-1-[(2S)-2-methoxypropyl]-3-methyl-1,3-dihydro-2H-imidazo[4,5-c]quinolin-2-one], which IC50 [1] is on record?
**A.** 208 nM

**Q.** And the IC50 [2]?
**A.** 184 nM

**Q.** What about the IC50 (A204) of the same molecule?
**A.** 97 nM

**Q.** And the IC50 (AKT1(pT308))?
**A.** 106 nM

**Q.** What about the IC50 [3] of the same molecule?
**A.** > 200 nM

**Q.** What about the IC50 [4] of the same molecule?
**A.** 80 nM

**Q.** What about the IC50 [5] of the same molecule?
**A.** 29 nM
